Laboratory results reported in the OligoGym collection.
Oligonucleotides are written 5' to 3', each unit as a sugar letter and its base; * is a phosphorothioate linkage, no mark a phosphodiester; rarer units and linkages stand in square brackets, end groups in braces. Plain capitals give the bases only. d = 2'-deoxy (DNA); r = 2'-OH (RNA)

Molecular target: DENND5A
Experiment: reporter assay of Huesken 2005
Settings: siRNA
Also: test concentration or dose not given here.

Substance	normalised inhibition (eCFP-eYFP dual reporter)
sense rArArCrArGrGrGrArGrCrArArArUrGrCrArArAdTdT / antisense rUrUrUrGrCrArUrUrUrGrCrUrCrCrCrUrGrUrUdGdG	49.2%
sense rArArCrCrUrArUrUrArUrGrArGrArCrArUrUrAdTdT / antisense rUrArArUrGrUrCrUrCrArUrArArUrArGrGrUrUdTdG	66.3%
sense rArArCrUrGrGrGrGrUrGrArGrCrCrUrGrGrArAdTdT / antisense rUrUrCrCrArGrGrCrUrCrArCrCrCrCrArGrUrUdCdT	58.4%
sense rArArGrArGrGrArArUrGrGrGrArArCrArUrUrGdTdT / antisense rCrArArUrGrUrUrCrCrCrArUrUrCrCrUrCrUrUdGdT	50%
sense rArArUrGrGrCrArUrUrGrUrGrArArGrCrArCrUdTdT / antisense rArGrUrGrCrUrUrCrArCrArArUrGrCrCrArUrUdGdA	60.5%
sense rArArUrGrGrGrArArCrArUrUrGrCrUrGrGrCrUdTdT / antisense rArGrCrCrArGrCrArArUrGrUrUrCrCrCrArUrUdCdC	43.6%
sense rArCrArUrCrCrArGrArArCrArUrCrGrGrGrGrAdTdT / antisense rUrCrCrCrCrGrArUrGrUrUrCrUrGrGrArUrGrUdGdC	44.4%
sense rArCrArUrGrArArGrArUrUrGrGrArCrArArGrGdTdT / antisense rCrCrUrUrGrUrCrCrArArUrCrUrUrCrArUrGrUdCdA	70.5%
sense rArCrCrCrCrArGrCrArGrCrArArUrArArGrGrAdTdT / antisense rUrCrCrUrUrArUrUrGrCrUrGrCrUrGrGrGrGrUdCdT	64.9%
sense rArCrCrUrGrCrCrCrUrUrCrCrUrCrUrCrArArGdTdT / antisense rCrUrUrGrArGrArGrGrArArGrGrGrCrArGrGrUdAdG	53.2%
sense rArCrGrArGrCrUrGrUrCrGrGrCrArUrUrArUrGdTdT / antisense rCrArUrArArUrGrCrCrGrArCrArGrCrUrCrGrUdCdC	54.1%
sense rArCrGrCrUrGrUrUrGrCrUrCrUrGrUrGrGrArGdTdT / antisense rCrUrCrCrArCrArGrArGrCrArArCrArGrCrGrUdCdA	60.7%
sense rArCrUrGrGrGrGrUrGrArGrCrCrUrGrGrArArAdTdT / antisense rUrUrUrCrCrArGrGrCrUrCrArCrCrCrCrArGrUdTdC	37.1%
sense rArGrArArCrUrUrGrGrGrGrArArGrCrUrUrArCdTdT / antisense rGrUrArArGrCrUrUrCrCrCrCrArArGrUrUrCrUdGdG	88.2%
sense rArGrArArGrArArCrUrCrArGrGrArUrUrUrArCdTdT / antisense rGrUrArArArUrCrCrUrGrArGrUrUrCrUrUrCrUdTdC	44.7%
sense rArGrArCrCrCrArGrGrCrUrGrArUrCrCrCrArGdTdT / antisense rCrUrGrGrGrArUrCrArGrCrCrUrGrGrGrUrCrUdTdG	75.1%
sense rArGrArGrGrArArUrGrGrGrArArCrArUrUrGrCdTdT / antisense rGrCrArArUrGrUrUrCrCrCrArUrUrCrCrUrCrUdTdG	53.6%
sense rArGrArGrGrGrArGrArArGrUrArCrArUrCrCrAdTdT / antisense rUrGrGrArUrGrUrArCrUrUrCrUrCrCrCrUrCrUdGdG	80.7%
sense rArGrArGrUrGrCrCrUrCrCrArArGrCrUrGrArAdTdT / antisense rUrUrCrArGrCrUrUrGrGrArGrGrCrArCrUrCrUdCdA	66.9%
sense rArGrCrCrCrCrArArUrUrCrCrArUrGrCrCrUrUdTdT / antisense rArArGrGrCrArUrGrGrArArUrUrGrGrGrGrCrUdCdC	57.6%
sense rArGrCrUrGrArArGrArGrGrCrUrGrCrGrGrGrCdTdT / antisense rGrCrCrCrGrCrArGrCrCrUrCrUrUrCrArGrCrUdTdG	54.9%
sense rArGrGrArCrArArCrCrGrGrCrArGrArGrArArAdTdT / antisense rUrUrUrCrUrCrUrGrCrCrGrGrUrUrGrUrCrCrUdGdA	67%
sense rArGrGrArGrArArUrUrGrGrGrUrGrArGrArCrAdTdT / antisense rUrGrUrCrUrCrArCrCrCrArArUrUrCrUrCrCrUdGdA	70.5%
sense rArGrGrCrUrGrArUrCrCrCrArGrGrGrArGrCrCdTdT / antisense rGrGrCrUrCrCrCrUrGrGrGrArUrCrArGrCrCrUdGdG	57.4%
sense rArGrGrGrArUrGrGrUrGrCrCrArGrCrCrCrUrUdTdT / antisense rArArGrGrGrCrUrGrGrCrArCrCrArUrCrCrCrUdGdG	83.7%
sense rArGrUrUrGrCrCrArGrArGrGrArCrUrUrGrCrCdTdT / antisense rGrGrCrArArGrUrCrCrUrCrUrGrGrCrArArCrUdCdA	71.7%

Substance	normalised inhibition (eCFP-eYFP dual reporter)
sense rArUrCrCrArArCrCrCrArGrCrCrArGrGrArUrAdTdT / antisense rUrArUrCrCrUrGrGrCrUrGrGrGrUrUrGrGrArUdGdA	51.8%
sense rArUrCrCrGrCrCrArGrCrCrCrArArArCrUrGrUdTdT / antisense rArCrArGrUrUrUrGrGrGrCrUrGrGrCrGrGrArUdAdG	40.9%
sense rArUrGrCrCrArArArUrGrGrCrUrGrGrUrGrGrAdTdT / antisense rUrCrCrArCrCrArGrCrCrArUrUrUrGrGrCrArUdAdC	69.5%
sense rArUrGrGrCrUrGrGrUrGrGrArGrUrArUrGrUrGdTdT / antisense rCrArCrArUrArCrUrCrCrArCrCrArGrCrCrArUdTdT	71.9%
sense rArUrUrCrCrUrArCrGrArGrCrUrUrCrUrUrArAdTdT / antisense rUrUrArArGrArArGrCrUrCrGrUrArGrGrArArUdGdC	65.4%
sense rArUrUrGrArCrArArCrCrArCrUrUrCrArUrUrGdTdT / antisense rCrArArUrGrArArGrUrGrGrUrUrGrUrCrArArUdGdT	48.7%
sense rArUrUrGrArCrCrArUrArCrUrGrCrArArUrUrCdTdT / antisense rGrArArUrUrGrCrArGrUrArUrGrGrUrCrArArUdTdT	45.9%
sense rArUrUrGrCrCrArGrCrCrUrUrUrGrUrGrArUrCdTdT / antisense rGrArUrCrArCrArArArGrGrCrUrGrGrCrArArUdCdA	48.5%
sense rArUrUrUrGrArCrUrUrUrCrCrUrGrUrCrArArAdTdT / antisense rUrUrUrGrArCrArGrGrArArArGrUrCrArArArUdAdG	53.7%
sense rArUrUrUrGrGrGrUrUrUrGrCrCrCrUrCrArCrAdTdT / antisense rUrGrUrGrArGrGrGrCrArArArCrCrCrArArArUdGdT	72.2%
sense rCrArArGrArUrCrArGrGrCrUrGrUrUrGrArArUdTdT / antisense rArUrUrCrArArCrArGrCrCrUrGrArUrCrUrUrGdTdC	55.7%
sense rCrArCrArUrGrCrArCrArArUrGrCrUrGrArGrUdTdT / antisense rArCrUrCrArGrCrArUrUrGrUrGrCrArUrGrUrGdGdT	69.6%
sense rCrArCrCrUrArCrUrCrUrCrCrGrUrArCrArUrCdTdT / antisense rGrArUrGrUrArCrGrGrArGrArGrUrArGrGrUrGdTdC	54.7%
sense rCrArGrArUrCrUrGrCrArGrUrGrCrArArUrGrCdTdT / antisense rGrCrArUrUrGrCrArCrUrGrCrArGrArUrCrUrGdCdT	56.3%
sense rCrArGrArUrGrUrUrUrGrCrArUrCrUrUrUrCrAdTdT / antisense rUrGrArArArGrArUrGrCrArArArCrArUrCrUrGdGdG	75.3%
sense rCrArGrCrGrCrUrUrCrArArCrUrCrCrUrArUrGdTdT / antisense rCrArUrArGrGrArGrUrUrGrArArGrCrGrCrUrGdCdA	49.9%
sense rCrArGrGrArUrArUrGrArGrGrCrArCrArUrCrCdTdT / antisense rGrGrArUrGrUrGrCrCrUrCrArUrArUrCrCrUrGdAdA	46.7%
sense rCrArGrGrGrArGrCrArArArUrGrCrArArArArCdTdT / antisense rGrUrUrUrUrGrCrArUrUrUrGrCrUrCrCrCrUrGdTdT	67.9%
sense rCrArGrUrUrCrCrCrCrArArCrArArArUrUrGrGdTdT / antisense rCrCrArArUrUrUrGrUrUrGrGrGrGrArArCrUrGdTdG	67.9%
sense rCrArUrGrUrCrGrGrArGrCrGrUrGrCrUrGrGrAdTdT / antisense rUrCrCrArGrCrArCrGrCrUrCrCrGrArCrArUrGdCdC	60.8%
sense rCrArUrUrCrArGrArUrCrCrGrGrGrArArGrUrUdTdT / antisense rArArCrUrUrCrCrCrGrGrArUrCrUrGrArArUrGdTdT	74.7%
sense rCrCrArGrArGrGrGrArGrArArGrUrArCrArUrCdTdT / antisense rGrArUrGrUrArCrUrUrCrUrCrCrCrUrCrUrGrGdTdC	34.5%
sense rCrCrArGrCrCrUrUrUrGrUrGrArUrCrUrCrCrUdTdT / antisense rArGrGrArGrArUrCrArCrArArArGrGrCrUrGrGdCdA	47.1%
sense rCrCrArGrCrUrCrArCrUrCrArUrGrCrCrUrCrCdTdT / antisense rGrGrArGrGrCrArUrGrArGrUrGrArGrCrUrGrGdCdA	64.4%
sense rCrCrArUrGrCrCrUrUrUrArUrUrArUrCrArCrAdTdT / antisense rUrGrUrGrArUrArArUrArArArGrGrCrArUrGrGdAdA	72.5%
sense rCrCrCrCrGrCrCrGrCrUrGrCrArGrCrArGrUrCdTdT / antisense rGrArCrUrGrCrUrGrCrArGrCrGrGrCrGrGrGrGdTdC	61.8%
